Consider four molecules from article PMC4888459 (Biochemical Journal, 2016).

The target of data set [1] is AgD from S. mutans (agmatine deiminase) (Streptococcus mutans, UniProt Q8DW17). In words: IC50 plot. The format is biochemical.
The target in the next data set is agmatine deiminase (AgD) (Listeria monocytogenes, UniProt A0A0H3G8U9). In words: IC50, colorimetric. The format is biochemical.
Substrate in the data set “purified protein”: N=C(N)NCCCCN
The data set is described as follows: purified protein. The settings on record: active site (Cys356, His216; Asp94 and Asp218 believed to orient the substrate). The format is biochemical, Listeria monocytogenes.

AgD from S. mutans (agmatine deiminase), sequence (Q8DW17 whole entry): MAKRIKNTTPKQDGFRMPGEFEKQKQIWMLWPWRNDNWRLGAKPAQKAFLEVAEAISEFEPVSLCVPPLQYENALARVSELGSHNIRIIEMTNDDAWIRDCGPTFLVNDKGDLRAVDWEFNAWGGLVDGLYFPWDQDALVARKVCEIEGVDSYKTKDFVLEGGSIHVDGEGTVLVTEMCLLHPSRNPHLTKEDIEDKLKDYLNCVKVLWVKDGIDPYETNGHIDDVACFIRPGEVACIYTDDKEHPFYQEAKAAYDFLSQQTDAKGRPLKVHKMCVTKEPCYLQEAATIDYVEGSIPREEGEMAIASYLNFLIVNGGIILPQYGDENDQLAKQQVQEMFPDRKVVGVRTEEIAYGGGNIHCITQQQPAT

One may read the IC50 as the concentration that inhibits the measured activity by half. A high value points to a need for much substance. For `N=C(N)CCl` [2-chloroacetamidine], the IC50 in data set [1] was 400 ± 100 µM.
For `N=C(CF)NCCCCN` [ABFA, N-(4-aminobutyl)-2-fluoro-ethanimidamide], inhibition against agmatine deiminase (AgD) was half-maximal at 146 ± 15 µM (IC50).
Same read-out and setting: next, `N=C(CCl)NCCCCN` [ABCA, N-(4-aminobutyl)-2-chloro-ethanimidamide]: 78.5 ± 1.7 µM.

B1: agmatine deiminase (AgD) (Listeria monocytogenes 10403S) (protein)
chain: MRTIDSSSKKDGFRMPGEFEKHAGCYIIWPERPDNWRLGAKPAQKAFVDVATAISHFEPVTVVASSSQYVNARYMLSDEIRVVEMDNDDAWVRDSGPTFVVNDSGDVRGVDWSFNSWGGLVDGLYFPWDKDDQVAQKICELERKDRYRLADFVLEGGSIHVDGEGTLVTTEECLLSEGRNPQLSKQQIEMVLKEYLNLEKIIWLKRGIYLDETNGHVDNIFNYVRPGVVALAWTDDETDPQYEISKECFDILSNETDAKGRKLEVHKINVPKPILITDEESKGVDAVEGTLPREEGDRLAASYINYYTANGGVIFPLFGDPNDELAREKLQQLYPNCEVVGVKAREILLGGGNIHCITQQVPRG
The Km is the concentration of substrate that gives half-maximal velocity. Consider B1, for which the Km in the data set “purified protein” came out at 330 ± 90.0 µM.
